≈ marks a conversion by molar mass, not a printed value.
Key:
Format in all cases: functional
KB = assay: Cytotoxicity against human KB cells; details: read-out: ED50 (the source's name)
P388 [1] = assay: In vivo antitumor activity against mouse P388 cells at 1.25 mg/kg relative to control
P388 [2] = assay: In vivo antitumor activity against mouse P388 cells at 5 mg/kg relative to control
P388 [3] = assay: In vivo antitumor activity against mouse P388 cells at 2.5 mg/kg relative to control
P388 [4] = assay: Cytotoxicity against mouse P388 cells; details: read-out: ED50 (the source's name)
P388 [5] = assay: In vivo antitumor activity against mouse P388 cells at 3.8 mg/kg relative to control
P388 [6] = assay: In vivo antitumor activity against mouse P388 cells at 1.9 mg/kg relative to control
P388 [7] = assay: In vivo antitumor activity against mouse P388 cells at 7.5 mg/kg relative to control
P388 [8] = assay: In vivo antitumor activity against mouse P388 cells at 0.9 mg/kg relative to control
P388 [9] = assay: In vivo antitumor activity against mouse P388 cells at 0.5 mg/kg relative to control
P388 [10] = assay: In vivo antitumor activity against mouse P388 cells at 0.25 mg/kg relative to control
P388 [11] = assay: In vivo antitumor activity against mouse P388 cells at 1 mg/kg relative to control
P388 [12] = assay: In vivo antitumor activity against mouse P388 cells at 9.83 mg/kg relative to control
P388 [13] = assay: In vivo antitumor activity against mouse P388 cells at 2.46 mg/kg relative to control
P388 [14] = assay: In vivo antitumor activity against mouse P388 cells at 19.6 mg/kg relative to control
P388 [15] = assay: In vivo antitumor activity against mouse P388 cells at 4.92 mg/kg relative to control

O=c1ccc2nccc3c4c(O)cccc4n1c23
EC50 (KB): 2.1 µg/mL (≈ 8.89 µM)
T/C (P388 [1]): 108%
T/C (P388 [2]): 102%
T/C (P388 [3]): 107%
EC50 (P388 [4]): 2.3 µg/mL (≈ 9.74 µM)

COc1cc([C@H]2Oc3c(OC)cc4ccc(=O)oc4c3O[C@@H]2CO)ccc1O [CLEOMISCOSIN A]
EC50 (KB): 4.9 µg/mL (≈ 12.7 µM)
EC50 (P388 [4]): 2.8 µg/mL (≈ 7.25 µM)

CC1=CC(=O)[C@@H](O)[C@]2(C)[C@H]3[C@]4(O)OC[C@]35[C@H]([C@@H](C)[C@H]4O)[C@@H](O)C(=O)O[C@@H]5C[C@@H]12 [GLAUCARUBOLONE]
EC50 (KB): 0.11 µg/mL (≈ 0.279 µM)
T/C (P388 [2]): 132%
EC50 (P388 [4]): 0.01 µg/mL (≈ 0.0254 µM)

CC(=O)O[C@H]1C(=O)O[C@@H]2C[C@H]3C(C)=CC(=O)[C@@H](O)[C@]3(C)[C@H]3[C@]4(O)OC[C@]32[C@@H]1[C@@H](C)[C@H]4O [HOLACANTHONE]
T/C (P388 [5]): 154%
T/C (P388 [6]): 134%
T/C (P388 [7]): 136%
T/C (P388 [8]): 127%

COC(=O)[C@]12OC[C@]34[C@H]([C@@H](O)[C@@H]1O)[C@@]1(C)[C@H](O)C(=O)C=C(C)[C@@H]1C[C@H]3OC(=O)[C@H](OC(=O)CC(C)C)[C@@H]24 [ISOBRUCEIN A]
T/C (P388 [9]): 145%
EC50 (KB): 0.003 µg/mL (≈ 0.00574 µM)
T/C (P388 [10]): 138%
T/C (P388 [11]): 155%
EC50 (P388 [4]): 0.001 µg/mL (≈ 0.00191 µM)

COC1=C(C)[C@@H]2CC(=O)O[C@@H]3C[C@H]4C(C)=C[C@H](O)C(=O)[C@]4(C)[C@@H](C1=O)[C@@]32C [PICRASIN B]
T/C (P388 [12]): 107%
EC50 (KB): > 100 µg/mL
T/C (P388 [13]): 107%
EC50 (P388 [4]): > 100 µg/mL
T/C (P388 [14]): 107%
T/C (P388 [15]): 102%
